pKi: −log10 of the molar value. Read-outs that look alike come from different tables or passages of the source.
Key:
Type in all cases: biochemical
SIK2 = SIK2 (Homo sapiens, UniProt Q9H0K1); experiment: SIK2 kinase assay, IMAP fluorescence polarization; details: 50 or 100 μM ATP; average; read-out: SIK2-AVERAGE Ki
SIK1 = SIK1 (Homo sapiens, UniProt P57059); experiment: SIK1 kinase assay, IMAP fluorescence polarization; details: 50 or 100 μM ATP; average; read-out: SIK1-AVERAGE Ki
Src = Src (Homo sapiens, UniProt P12931); experiment: Src kinase assay, IMAP fluorescence polarization; details: 50 or 100 μM ATP; average; read-out: Src-AVERAGE Ki
Src, sequence (P12931 whole entry): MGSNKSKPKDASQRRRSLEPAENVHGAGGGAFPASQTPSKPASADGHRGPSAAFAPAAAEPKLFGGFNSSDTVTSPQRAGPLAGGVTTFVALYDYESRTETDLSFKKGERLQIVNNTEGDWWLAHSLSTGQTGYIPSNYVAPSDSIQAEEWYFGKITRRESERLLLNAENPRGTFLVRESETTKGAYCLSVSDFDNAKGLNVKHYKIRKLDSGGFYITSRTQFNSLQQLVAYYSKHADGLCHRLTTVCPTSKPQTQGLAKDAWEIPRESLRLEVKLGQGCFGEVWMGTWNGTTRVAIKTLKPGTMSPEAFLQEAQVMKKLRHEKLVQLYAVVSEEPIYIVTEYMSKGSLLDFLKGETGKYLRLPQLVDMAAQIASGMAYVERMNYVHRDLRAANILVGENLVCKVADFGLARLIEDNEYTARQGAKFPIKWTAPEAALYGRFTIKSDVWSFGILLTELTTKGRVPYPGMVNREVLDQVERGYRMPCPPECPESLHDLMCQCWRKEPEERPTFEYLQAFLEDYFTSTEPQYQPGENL

SIK3 = SIK3 (Homo sapiens, UniProt Q9Y2K2); experiment: SIK3 kinase assay, IMAP fluorescence polarization; details: 50 or 100 μM ATP; average; read-out: SIK3-AVERAGE Ki
SIK3, sequence (Q9Y2K2 whole entry): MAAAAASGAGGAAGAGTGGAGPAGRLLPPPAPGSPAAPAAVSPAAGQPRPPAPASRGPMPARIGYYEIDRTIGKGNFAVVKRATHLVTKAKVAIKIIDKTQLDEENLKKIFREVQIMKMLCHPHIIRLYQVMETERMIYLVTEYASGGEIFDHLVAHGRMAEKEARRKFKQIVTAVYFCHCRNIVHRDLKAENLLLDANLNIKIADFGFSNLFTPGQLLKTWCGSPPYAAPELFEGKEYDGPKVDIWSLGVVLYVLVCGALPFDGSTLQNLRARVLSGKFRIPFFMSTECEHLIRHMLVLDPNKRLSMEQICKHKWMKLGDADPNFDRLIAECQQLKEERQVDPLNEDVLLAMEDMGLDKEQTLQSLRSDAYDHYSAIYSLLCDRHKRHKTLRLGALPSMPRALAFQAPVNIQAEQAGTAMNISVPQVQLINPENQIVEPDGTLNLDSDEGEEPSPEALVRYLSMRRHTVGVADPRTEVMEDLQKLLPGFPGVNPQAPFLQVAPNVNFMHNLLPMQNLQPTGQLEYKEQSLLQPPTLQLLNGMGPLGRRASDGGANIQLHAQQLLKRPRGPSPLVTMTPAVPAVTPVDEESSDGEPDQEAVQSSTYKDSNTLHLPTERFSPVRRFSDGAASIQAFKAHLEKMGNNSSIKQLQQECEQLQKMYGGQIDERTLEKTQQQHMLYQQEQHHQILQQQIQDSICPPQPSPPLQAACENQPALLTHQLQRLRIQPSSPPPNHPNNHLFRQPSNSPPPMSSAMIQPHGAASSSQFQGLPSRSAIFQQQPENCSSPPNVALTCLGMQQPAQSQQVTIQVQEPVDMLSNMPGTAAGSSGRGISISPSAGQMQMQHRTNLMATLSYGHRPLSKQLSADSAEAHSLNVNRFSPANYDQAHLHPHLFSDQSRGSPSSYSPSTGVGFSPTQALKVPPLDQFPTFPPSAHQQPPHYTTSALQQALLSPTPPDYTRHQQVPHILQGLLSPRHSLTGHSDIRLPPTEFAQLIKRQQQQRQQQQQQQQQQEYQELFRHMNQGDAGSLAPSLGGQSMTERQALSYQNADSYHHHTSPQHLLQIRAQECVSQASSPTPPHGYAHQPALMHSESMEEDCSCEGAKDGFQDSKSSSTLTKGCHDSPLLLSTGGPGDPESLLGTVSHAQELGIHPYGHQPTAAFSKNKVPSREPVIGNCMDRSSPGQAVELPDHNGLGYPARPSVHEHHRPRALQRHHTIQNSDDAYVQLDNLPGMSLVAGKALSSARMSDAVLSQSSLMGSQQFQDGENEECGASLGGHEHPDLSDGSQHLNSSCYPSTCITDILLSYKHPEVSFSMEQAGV

Abl = Abl (Homo sapiens, UniProt P00519); experiment: Abl kinase assay, IMAP fluorescence polarization; details: 50 or 100 μM ATP; average; read-out: Abl-AVERAGE Ki
Abl, sequence (P00519 whole entry): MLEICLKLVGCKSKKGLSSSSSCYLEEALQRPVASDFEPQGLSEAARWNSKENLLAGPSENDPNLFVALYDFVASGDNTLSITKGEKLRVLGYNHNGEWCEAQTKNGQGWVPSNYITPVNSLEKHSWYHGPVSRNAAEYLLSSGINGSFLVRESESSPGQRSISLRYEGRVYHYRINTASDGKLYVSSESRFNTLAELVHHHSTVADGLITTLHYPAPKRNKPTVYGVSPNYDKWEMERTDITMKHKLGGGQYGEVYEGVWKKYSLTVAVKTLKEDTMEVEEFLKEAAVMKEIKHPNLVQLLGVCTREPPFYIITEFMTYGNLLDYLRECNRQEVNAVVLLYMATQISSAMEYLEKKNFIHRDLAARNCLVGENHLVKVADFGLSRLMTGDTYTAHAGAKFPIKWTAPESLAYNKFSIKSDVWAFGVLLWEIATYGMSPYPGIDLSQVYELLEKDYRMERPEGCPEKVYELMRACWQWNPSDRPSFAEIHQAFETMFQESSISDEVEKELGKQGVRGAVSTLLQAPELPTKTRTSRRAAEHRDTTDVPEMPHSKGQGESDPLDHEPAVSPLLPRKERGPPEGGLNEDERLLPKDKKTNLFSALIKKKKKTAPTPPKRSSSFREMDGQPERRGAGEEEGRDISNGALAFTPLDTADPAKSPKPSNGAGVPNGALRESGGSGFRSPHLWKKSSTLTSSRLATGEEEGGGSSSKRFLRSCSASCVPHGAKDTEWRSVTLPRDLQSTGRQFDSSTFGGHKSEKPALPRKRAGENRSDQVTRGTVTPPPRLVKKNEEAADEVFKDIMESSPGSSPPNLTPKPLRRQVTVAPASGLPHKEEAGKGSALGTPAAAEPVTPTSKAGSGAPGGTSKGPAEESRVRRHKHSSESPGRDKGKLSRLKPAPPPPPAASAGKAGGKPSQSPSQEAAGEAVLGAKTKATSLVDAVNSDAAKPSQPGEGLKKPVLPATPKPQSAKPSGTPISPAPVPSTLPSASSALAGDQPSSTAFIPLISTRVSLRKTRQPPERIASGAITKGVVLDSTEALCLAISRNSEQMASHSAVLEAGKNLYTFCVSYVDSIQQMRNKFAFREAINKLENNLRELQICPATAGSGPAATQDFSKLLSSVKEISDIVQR

EPHA2 = EPHA2 (Homo sapiens, UniProt P29317); experiment: EPHA2 kinase assay, IMAP fluorescence polarization

SIK2, sequence (Q9H0K1 whole entry): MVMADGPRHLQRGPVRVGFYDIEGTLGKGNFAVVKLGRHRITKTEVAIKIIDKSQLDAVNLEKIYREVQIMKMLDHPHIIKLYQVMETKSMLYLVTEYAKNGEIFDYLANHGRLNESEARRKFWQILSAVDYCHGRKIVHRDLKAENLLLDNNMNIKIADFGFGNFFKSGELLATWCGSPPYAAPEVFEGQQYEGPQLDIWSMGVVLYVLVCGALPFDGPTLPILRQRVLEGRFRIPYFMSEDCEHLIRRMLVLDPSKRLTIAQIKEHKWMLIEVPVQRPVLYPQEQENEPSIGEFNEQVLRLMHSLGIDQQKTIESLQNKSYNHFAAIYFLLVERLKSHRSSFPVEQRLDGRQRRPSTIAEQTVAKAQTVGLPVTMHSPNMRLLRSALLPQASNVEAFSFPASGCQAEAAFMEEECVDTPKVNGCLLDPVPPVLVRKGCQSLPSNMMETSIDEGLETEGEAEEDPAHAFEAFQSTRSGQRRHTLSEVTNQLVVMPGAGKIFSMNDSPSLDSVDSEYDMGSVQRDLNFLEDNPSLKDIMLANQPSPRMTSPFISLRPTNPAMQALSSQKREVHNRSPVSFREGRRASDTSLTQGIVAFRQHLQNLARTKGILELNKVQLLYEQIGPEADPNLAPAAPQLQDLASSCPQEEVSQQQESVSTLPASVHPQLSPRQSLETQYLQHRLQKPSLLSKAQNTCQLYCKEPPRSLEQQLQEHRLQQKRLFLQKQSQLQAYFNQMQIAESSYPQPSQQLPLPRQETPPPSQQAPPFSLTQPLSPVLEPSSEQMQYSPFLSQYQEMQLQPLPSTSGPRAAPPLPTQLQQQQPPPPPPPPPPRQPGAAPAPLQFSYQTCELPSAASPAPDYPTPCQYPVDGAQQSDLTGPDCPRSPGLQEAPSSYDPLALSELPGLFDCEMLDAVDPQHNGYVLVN
SIK1, sequence (P57059 whole entry): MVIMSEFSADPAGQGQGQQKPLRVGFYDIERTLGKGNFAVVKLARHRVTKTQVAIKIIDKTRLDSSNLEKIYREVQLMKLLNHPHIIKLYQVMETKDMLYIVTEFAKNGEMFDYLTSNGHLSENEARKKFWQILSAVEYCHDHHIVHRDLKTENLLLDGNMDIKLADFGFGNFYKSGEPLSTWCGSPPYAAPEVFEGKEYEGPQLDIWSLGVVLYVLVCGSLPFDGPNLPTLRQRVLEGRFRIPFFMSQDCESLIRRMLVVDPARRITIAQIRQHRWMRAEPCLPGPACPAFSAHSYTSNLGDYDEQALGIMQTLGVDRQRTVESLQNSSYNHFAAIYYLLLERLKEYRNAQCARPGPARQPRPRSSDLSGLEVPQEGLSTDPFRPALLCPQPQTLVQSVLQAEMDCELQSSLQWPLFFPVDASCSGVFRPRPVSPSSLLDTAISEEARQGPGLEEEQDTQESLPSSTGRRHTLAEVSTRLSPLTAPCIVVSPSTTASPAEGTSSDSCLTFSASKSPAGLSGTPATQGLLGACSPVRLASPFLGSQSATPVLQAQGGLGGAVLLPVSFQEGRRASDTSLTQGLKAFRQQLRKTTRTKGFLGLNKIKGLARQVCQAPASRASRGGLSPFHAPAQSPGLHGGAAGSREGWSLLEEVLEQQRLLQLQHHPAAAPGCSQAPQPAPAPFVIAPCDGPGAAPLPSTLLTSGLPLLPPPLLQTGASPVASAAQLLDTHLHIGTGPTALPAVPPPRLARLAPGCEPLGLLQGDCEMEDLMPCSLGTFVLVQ

Work on `Cc1cccc(F)c1N1Cc2cnc(N)cc2N([C@H]2CCNC2)C1=O` [Example 78, 7-amino-3-(2-fluoro-6-methyl-phenyl)-1-[(3S)-pyrrolidin-3-yl]-4H-pyrido[4,3-d]pyrimidin-2-one] yielded a pKi (SIK2) of 8.79, a pKi (SIK1) of 8.89 and a pKi (Src) of under 6.00. The pKi (SIK3) was 7.81, the pKi (Abl) was under 6.00 and the pKi (EPHA2; 50 or 100 μM ATP, average) was under 6.00.
In the case of `Cc1cccc(F)c1N1Cc2cnc(N)cc2N(C2CN(C)C2)C1=O` [Example 5, 7-amino-3-(2-fluoro-6-methyl-phenyl)-1-(1-methylazetidin-3-yl)-4H-pyrido[4,3-d]pyrimidin-2-one], the pKi (SIK2) was 7.87, the pKi (SIK1) was 7.25 and the pKi (Src) was under 6.00. The pKi (SIK3) was 6.90, the pKi (Abl) was under 6.00 and the pKi (EPHA2; 50 or 100 μM ATP, average) was under 6.00.
With `Cc1cccc(F)c1N1Cc2cnc(N)cc2N([C@H]2CCCCNC2)C1=O` [Example 53, 7-amino-1-[(3S)-azepan-3-yl]-3-(2-fluoro-6-methyl-phenyl)-4H-pyrido[4,3-d]pyrimidin-2-one] the pKi (SIK2) was 8.65, the pKi (SIK1) was 8.02 and the pKi (Src) was 5.54. The pKi (SIK3) was 7.17, the pKi (Abl) was 6.29 and the pKi (EPHA2; 50 or 100 μM ATP, average) was 6.09.
Compound `Cc1cccc(F)c1N1Cc2cnc(N)nc2N([C@H]2CCCN(C)C2)C1=O` [Example 37, 7-amino-3-(2-fluoro-6-methyl-phenyl)-1-[(3S)-1-methyl-3-piperidyl]-4H-pyrimido[4,5-d]pyrimidin-2-one] has a pKi (SIK2) of 9.15, a pKi (SIK1) of 8.60 and a pKi (Src) of 7.09. For the same compound, the pKi (SIK3) was 8.18, the pKi (Abl) was 7.27 and the pKi (EPHA2; 50 or 100 μM ATP, average) was 7.59.
In the case of `Cc1cccc(F)c1N1Cc2cnc(N)cc2N([C@H]2CC[C@H](N)CC2)C1=O` [Example 58, trans-7-Amino-1-(4-aminocyclohexyl)-3-(2-fluoro-6-methyl-phenyl)-4H-pyrido[4,3-d]pyrimidin-2-one], the pKi (SIK2) was 9.92, the pKi (SIK1) was 9.35 and the pKi (Src) was 7.72. The pKi (SIK3) was 9.55, the pKi (Abl) was 7.54 and the pKi (EPHA2; 50 or 100 μM ATP, average) was 7.33.
`Cc1cccc(F)c1N1Cc2cnc(N)cc2N(C2CNC2)C1=O` [Example 4, 7-amino-1-(azetidin-3-yl)-3-(2-fluoro-6-methyl-phenyl)-4H-pyrido[4,3-d]pyrimidin-2-one] showed a pKi (SIK2) of 8.39, a pKi (SIK1) of 8.10 and a pKi (Src) of 6.26. For the same compound, the pKi (SIK3) was 7.45, the pKi (Abl) was 6.73 and the pKi (EPHA2) was 6.65.
With `Cc1cccc(F)c1N1Cc2cnc(N)nc2N([C@H]2CCCN(C)CC2)C1=O` [Example 35, 7-amino-3-(2-fluoro-6-methyl-phenyl)-1-[(4S)-1-methylazepan-4-yl]-4H-pyrimido[4,5-d]pyrimidin-2-one] the pKi (SIK2) was 9.42, the pKi (SIK1) was 8.93 and the pKi (Src) was 6.54. It also gave a pKi (SIK3) of 8.67, a pKi (Abl) of 6.98 and a pKi (EPHA2) of 7.41.
`Cc1cccc(F)c1N1Cc2cnc(N)nc2N([C@H]2CCCCN(C)C2)C1=O` [Example 36, 7-amino-3-(2-fluoro-6-methyl-phenyl)-1-[(3S)-1-methylazepan-3-yl]-4H-pyrimido[4,5-d]pyrimidin-2-one] was tested, and the pKi (SIK2) was 9.17, the pKi (SIK1) was 8.73 and the pKi (Src) was 6.86. For the same compound, the pKi (SIK3) was 8.06, the pKi (Abl) was 7.21 and the pKi (EPHA2; 50 or 100 μM ATP, average) was 6.91.
`Cc1cccc(F)c1N1Cc2cnc(N)nc2N([C@H]2CCCCNC2)C1=O` [Example 70, 7-amino-1-[(3S)-azepan-3-yl]-3-(2-fluoro-6-methyl-phenyl)-4H-pyrimido[4,5-d]pyrimidin-2-one] gave a pKi (SIK2) of 9.56, a pKi (SIK1) of 9.04 and a pKi (Src) of 6.94. The pKi (SIK3) was 8.23, the pKi (Abl) was 7.07 and the pKi (EPHA2; 50 or 100 μM ATP, average) was 7.13.
For `Cc1cccc(F)c1N1Cc2cnc(N)nc2N(C2CNC2)C1=O` [Example 13, 7-Amino-1-(azetidin-3-yl)-3-(2-fluoro-6-methyl-phenyl)-4H-pyrimido[4,5-d]pyrimidin-2-one], the pKi (SIK2) was 8.75, the pKi (SIK1) was 8.01 and the pKi (Src) was 6.40. For the same compound, the pKi (SIK3) was 7.96, the pKi (Abl) was 7.44 and the pKi (EPHA2; 50 or 100 μM ATP, average) was 6.43.
With `Cc1cccc(F)c1N1Cc2cnc(N)cc2N([C@H]2CCC[C@@H](N)C2)C1=O` (relative stereo) [Example 56, 7-amino-1-[(cis)-3-aminocyclohexyl]-3-(2-fluoro-6-methyl-phenyl)-4H-pyrido[4,3-d]pyrimidin-2-one] the pKi (SIK2) was 9.72, the pKi (SIK1) was 9.22 and the pKi (Src) was 7.72. For the same compound, the pKi (SIK3) was 8.84, the pKi (Abl) was 8.48 and the pKi (EPHA2; 50 or 100 μM ATP, average) was 7.37.
For `Cc1cccc(F)c1N1Cc2cnc(N)nc2N([C@H]2CCNC2)C1=O` [Example 65, 7-Amino-3-(2-fluoro-6-methyl-phenyl)-1-[(3S)-pyrrolidin-3-yl]-4H-pyrimido[4,5-d]pyrimidin-2-one], the pKi (SIK2) was 8.95, the pKi (SIK1) was 8.55 and the pKi (Src) was under 6.00. The pKi (SIK3) was 7.68, the pKi (Abl) was under 6.00 and the pKi (EPHA2; 50 or 100 μM ATP, average) was 6.83.
`CNC1CCCC(N2C(=O)N(c3c(C)cccc3F)Cc3cnc(N)cc32)C1` (stereo not drawn) [Example 57, 7-amino-3-(2-fluoro-6-methyl-phenyl)-1-[3-(methylamino)cyclohexyl]-4H-pyrido[4,3-d]pyrimidin-2-one] gave a pKi (SIK2) of 9.40, a pKi (SIK1) of 8.96 and a pKi (Src) of 7.21. The pKi (SIK3) was 8.52, the pKi (Abl) was 7.77 and the pKi (EPHA2; 50 or 100 μM ATP, average) was 7.37.
Compound `Cc1cccc(F)c1N1Cc2cnc(N)cc2N([C@H]2CCCNCC2)C1=O` [Example 54, 7-amino-1-[(4S)-azepan-4-yl]-3-(2-fluoro-6-methyl-phenyl)-4H-pyrido[4,3-d]pyrimidin-2-one] has a pKi (SIK2) of 9.14, a pKi (SIK1) of 8.68 and a pKi (Src) of 6.37. It also gave a pKi (SIK3) of 8.38, a pKi (Abl) of 7.19 and a pKi (EPHA2; 50 or 100 μM ATP, average) of 6.67.
In the case of `Cc1cccc(F)c1N1Cc2cnc(N)cc2N([C@H]2CC[C@H](N(C)C)CC2)C1=O` [Example 59, trans-7-Amino-1-[4-(dimethylamino)cyclohexyl]-3-(2-fluoro-6-methyl-phenyl)-4H-pyrido[4,3-d]pyrimidin-2-one], the pKi (SIK2) was 10.00, the pKi (SIK1) was 9.53 and the pKi (Src) was 7.53. It also gave a pKi (SIK3) of 9.84, a pKi (Abl) of 8.14 and a pKi (EPHA2; 50 or 100 μM ATP, average) of 6.91.
In the case of `Cc1cccc(F)c1N1Cc2cnc(N)nc2N(C2CCCC(N)C2)C1=O` (stereo not drawn) [Example 75, 7-amino-1-(3-aminocyclohexyl)-3-(2-fluoro-6-methyl-phenyl)-4H-pyrimido[4,5-d]pyrimidin-2-one], the pKi (SIK2) was 9.68, the pKi (SIK1) was 9.17 and the pKi (Src) was 7.93. It also gave a pKi (SIK3) of 8.52, a pKi (Abl) of 7.86 and a pKi (EPHA2; 50 or 100 μM ATP, average) of 8.03.
`Cc1cccc(F)c1N1Cc2cnc(N)cc2N([C@H]2CC[C@@H](N)CC2)C1=O` [Example 62, cis-7-Amino-1-(4-aminocyclohexyl)-3-(2-fluoro-6-methyl-phenyl)-4H-pyrido[4,3-d]pyrimidin-2-one] showed a pKi (SIK2) of 9.83, a pKi (SIK1) of 9.13 and a pKi (Src) of 7.51. For the same compound, the pKi (SIK3) was 9.03, the pKi (Abl) was 7.37 and the pKi (EPHA2; 50 or 100 μM ATP, average) was 7.55.
`Cc1cccc(F)c1N1Cc2cnc(N)nc2N([C@@H]2CCCNC2)C1=O` [Example 73, 7-amino-3-(2-fluoro-6-methyl-phenyl)-1-[(3R)-3-piperidyl]-4H-pyrimido[4,5-d]pyrimidin-2-one] gave a pKi (SIK2) of 9.03, a pKi (SIK1) of 8.89 and a pKi (Src) of 7.11. It also gave a pKi (SIK3) of 8.00, a pKi (Abl) of 7.43 and a pKi (EPHA2; 50 or 100 μM ATP, average) of 7.25.
Compound `Cc1cccc(F)c1N1Cc2cnc(N)cc2N([C@@H]2CCCN(C)C2)C1=O` [Example 81, 7-amino-3-(2-fluoro-6-methyl-phenyl)-1-[(3R)-1-methyl-3-piperidyl]-4H-pyrido[4,3-d]pyrimidin-2-one] has a pKi (SIK2) of 9.28, a pKi (SIK1) of 9.08 and a pKi (Src) of 6.60. The pKi (SIK3) was 8.30, the pKi (Abl) was 7.17 and the pKi (EPHA2; 50 or 100 μM ATP, average) was 7.35.
For `Cc1cccc(F)c1N1Cc2cnc(N)cc2N(CC2CCNCC2)C1=O` [Example 2, 7-amino-3-(2-fluoro-6-methyl-phenyl)-1-(4-piperidylmethyl)-4H-pyrido[4,3-d]pyrimidin-2-one], the pKi (SIK2) was 9.79, the pKi (SIK1) was 9.03 and the pKi (Src) was 7.64. For the same compound, the pKi (SIK3) was 9.26, the pKi (Abl) was 8.63 and the pKi (EPHA2; 50 or 100 μM ATP, average) was 7.41.
Work on `Cc1cccc(F)c1N1Cc2cnc(N)cc2N([C@H]2CCC[C@@H](N(C)C)C2)C1=O` (relative stereo) [Example 43, 7-amino-1-[cis-3-(dimethylamino)cyclohexyl]-3-(2-fluoro-6-methyl-phenyl)-4H-pyrido[4,3-d]pyrimidin-2-one] yielded a pKi (SIK2) of 8.80, a pKi (SIK1) of 8.71 and a pKi (Src) of 7.15. For the same compound, the pKi (SIK3) was 7.87, the pKi (Abl) was 7.60 and the pKi (EPHA2; 50 or 100 μM ATP, average) was 7.41.
`Cc1cccc(Cl)c1N1Cc2cnc(N)cc2N(C2CN(C)C2)C1=O` [Example 9, 7-amino-3-(2-chloro-6-methyl-phenyl)-1-(1-methylazetidin-3-yl)-4H-pyrido[4,3-d]pyrimidin-2-one] was tested, and the pKi (SIK2) was 7.75, the pKi (SIK1) was 7.53 and the pKi (Src) was under 6.00. For the same compound, the pKi (SIK3) was 6.84, the pKi (Abl) was under 6.00 and the pKi (EPHA2) was 6.76.
`CN[C@H]1CC[C@H](N2C(=O)N(c3c(C)cccc3F)Cc3cnc(N)nc32)CC1` [Example 61, trans-7-amino-3-(2-fluoro-6-methyl-phenyl)-1-[4-(methylamino)cyclohexyl]-4H-pyrimido[4,5-d]pyrimidin-2-one] was tested, and the pKi (SIK2) was 9.99, the pKi (SIK1) was 9.77 and the pKi (Src) was 7.44. For the same compound, the pKi (SIK3) was 9.55, the pKi (Abl) was 7.54 and the pKi (EPHA2; 50 or 100 μM ATP, average) was 7.70.
`Cc1cccc(F)c1N1Cc2cnc(N)nc2N(CC2CCNCC2)C1=O` [Example 12, 7-amino-3-(2-fluoro-6-methyl-phenyl)-1-(4-piperidylmethyl)-4H-pyrimido[4,5-d]pyrimidin-2-one] showed a pKi (SIK2) of 9.83, a pKi (SIK1) of 9.09 and a pKi (Src) of 7.41. It also gave a pKi (SIK3) of 9.14, a pKi (Abl) of 8.51 and a pKi (EPHA2; 50 or 100 μM ATP, average) of 7.55.
